Data on 11 compounds can be found in ChEMBL document CHEMBL4414588, “Cinerols, Nitrogenous Meroterpenoids from the Marine Sponge Dysidea cinerea” (J Nat Prod, 2019).

pIC50: −log10 of the molar value. Active and inactive are the calls of the source. No cut-off for these calls is given here.

The target of data set [1] is T1, Tyrosine-protein phosphatase non-receptor type 11 (Homo sapiens) (UniProt Q06124).
T1 sequence (whole entry): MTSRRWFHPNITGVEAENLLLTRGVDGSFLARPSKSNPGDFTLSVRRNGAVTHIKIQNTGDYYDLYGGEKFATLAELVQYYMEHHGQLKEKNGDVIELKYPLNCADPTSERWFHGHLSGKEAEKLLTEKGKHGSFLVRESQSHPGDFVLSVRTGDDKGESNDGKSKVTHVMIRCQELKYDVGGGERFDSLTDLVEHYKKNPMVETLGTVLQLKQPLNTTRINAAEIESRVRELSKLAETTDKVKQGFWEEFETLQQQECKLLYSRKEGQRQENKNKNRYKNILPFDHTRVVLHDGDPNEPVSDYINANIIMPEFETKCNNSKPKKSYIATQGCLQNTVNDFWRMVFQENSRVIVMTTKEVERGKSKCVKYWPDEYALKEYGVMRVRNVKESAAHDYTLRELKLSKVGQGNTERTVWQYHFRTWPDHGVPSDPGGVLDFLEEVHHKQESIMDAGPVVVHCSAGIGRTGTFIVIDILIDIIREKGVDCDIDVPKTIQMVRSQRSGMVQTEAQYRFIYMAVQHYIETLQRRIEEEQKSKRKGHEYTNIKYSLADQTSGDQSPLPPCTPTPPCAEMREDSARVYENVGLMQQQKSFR
The experiment in a line: Inhibition of SHP2 (unknown origin).

Data set [2] has as its target T2, ATP-citrate synthase (Homo sapiens, UniProt P53396).
T2 sequence (P53396 whole entry): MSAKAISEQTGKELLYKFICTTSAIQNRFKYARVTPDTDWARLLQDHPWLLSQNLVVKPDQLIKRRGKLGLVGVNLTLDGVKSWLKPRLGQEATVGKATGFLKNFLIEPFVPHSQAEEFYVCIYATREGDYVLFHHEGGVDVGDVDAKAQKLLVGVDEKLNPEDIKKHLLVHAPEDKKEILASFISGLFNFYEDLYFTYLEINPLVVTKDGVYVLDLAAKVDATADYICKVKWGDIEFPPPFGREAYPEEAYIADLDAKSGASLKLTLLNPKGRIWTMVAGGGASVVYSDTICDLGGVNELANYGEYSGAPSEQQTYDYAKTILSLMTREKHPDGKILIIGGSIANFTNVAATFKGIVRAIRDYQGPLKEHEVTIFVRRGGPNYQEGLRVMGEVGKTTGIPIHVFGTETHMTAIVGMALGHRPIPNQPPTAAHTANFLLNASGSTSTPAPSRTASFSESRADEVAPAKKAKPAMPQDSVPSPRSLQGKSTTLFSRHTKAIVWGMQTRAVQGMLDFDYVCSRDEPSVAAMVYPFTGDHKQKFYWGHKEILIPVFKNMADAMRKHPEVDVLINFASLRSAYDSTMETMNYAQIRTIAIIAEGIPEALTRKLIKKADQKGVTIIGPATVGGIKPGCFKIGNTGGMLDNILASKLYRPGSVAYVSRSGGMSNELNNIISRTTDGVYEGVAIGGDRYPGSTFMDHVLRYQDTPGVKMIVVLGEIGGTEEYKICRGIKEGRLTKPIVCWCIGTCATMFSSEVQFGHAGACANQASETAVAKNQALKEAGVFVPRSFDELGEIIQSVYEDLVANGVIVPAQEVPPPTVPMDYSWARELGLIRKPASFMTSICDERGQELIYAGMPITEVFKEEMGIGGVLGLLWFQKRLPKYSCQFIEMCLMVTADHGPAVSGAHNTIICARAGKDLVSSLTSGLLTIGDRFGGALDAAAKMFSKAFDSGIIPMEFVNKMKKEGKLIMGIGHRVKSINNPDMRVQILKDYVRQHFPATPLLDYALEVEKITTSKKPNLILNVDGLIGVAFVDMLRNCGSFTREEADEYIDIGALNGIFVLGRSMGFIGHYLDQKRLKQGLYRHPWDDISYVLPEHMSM
Kind of data set: Inhibition of ACL (unknown origin).

The test system of data set [3] is A-375. The experiment in a line: Cytotoxicity against human A375 cells assessed as reduction in cell viability at 32 uM incubated for 72 hrs by CCK8 assay. Conditions: a-375, 72 h. The class given is cell-based.
Data set [4] has as its system HEK293. Kind of data set: Cytotoxicity against human HEK293 cells assessed as reduction in cell viability at 32 uM incubated for 72 hrs by CCK8 assay. The class given is cell-based. As to conditions: hek293, 72 h.
Data set [5] has as its target T3, Tyrosine-protein phosphatase non-receptor type 1 (Homo sapiens, UniProt P18031).
T3 sequence (P18031 whole entry): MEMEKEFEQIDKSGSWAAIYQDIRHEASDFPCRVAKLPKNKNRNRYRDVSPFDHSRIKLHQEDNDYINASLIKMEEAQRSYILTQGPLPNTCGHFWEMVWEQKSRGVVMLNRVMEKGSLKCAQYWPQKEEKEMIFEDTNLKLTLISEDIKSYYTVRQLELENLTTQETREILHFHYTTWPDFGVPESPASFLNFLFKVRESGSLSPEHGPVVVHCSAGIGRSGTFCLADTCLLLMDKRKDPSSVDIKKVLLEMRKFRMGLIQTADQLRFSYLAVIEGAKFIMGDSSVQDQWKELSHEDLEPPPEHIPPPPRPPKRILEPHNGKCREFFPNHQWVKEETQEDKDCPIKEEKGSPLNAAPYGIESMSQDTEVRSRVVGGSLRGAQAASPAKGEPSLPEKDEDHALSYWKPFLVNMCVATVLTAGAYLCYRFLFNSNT
Kind of data set: Inhibition of PTP1B (unknown origin) using pNPP as substrate incubated for 30 mins.

Data set [6] concerns the target Tyrosine-protein kinase JAK2 (Homo sapiens) (UniProt O60674). The experiment in a line: Inhibition of JAK2 (unknown origin).
Data set [7] addresses Tyrosine-protein phosphatase non-receptor type 6 (Homo sapiens, UniProt P29350). The experiment in a line: Inhibition of SHP1 (unknown origin).
Data set [8] concerns the target Acetyl-CoA carboxylase 1 (Homo sapiens) (UniProt Q13085). Kind of data set: Inhibition of ACC1 (unknown origin).

Sequence of Tyrosine-protein phosphatase non-receptor type 6 (P29350 whole entry): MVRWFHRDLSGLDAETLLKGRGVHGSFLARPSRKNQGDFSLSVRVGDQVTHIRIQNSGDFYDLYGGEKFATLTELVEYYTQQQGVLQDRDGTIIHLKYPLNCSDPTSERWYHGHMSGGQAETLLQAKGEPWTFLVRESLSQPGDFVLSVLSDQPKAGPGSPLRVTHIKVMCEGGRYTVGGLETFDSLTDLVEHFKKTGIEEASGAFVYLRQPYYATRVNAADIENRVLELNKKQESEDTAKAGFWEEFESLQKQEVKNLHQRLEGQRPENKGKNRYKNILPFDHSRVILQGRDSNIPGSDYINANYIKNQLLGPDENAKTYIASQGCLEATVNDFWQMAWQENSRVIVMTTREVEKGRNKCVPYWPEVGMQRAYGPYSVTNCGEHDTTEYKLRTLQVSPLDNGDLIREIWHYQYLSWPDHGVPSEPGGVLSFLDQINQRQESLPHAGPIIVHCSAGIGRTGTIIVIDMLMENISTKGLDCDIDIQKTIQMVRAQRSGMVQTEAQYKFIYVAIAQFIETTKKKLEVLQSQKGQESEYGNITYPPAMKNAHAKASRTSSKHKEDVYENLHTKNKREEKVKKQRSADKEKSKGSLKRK
Sequence of Tyrosine-protein kinase JAK2 (Homo sapiens) (O60674 whole entry): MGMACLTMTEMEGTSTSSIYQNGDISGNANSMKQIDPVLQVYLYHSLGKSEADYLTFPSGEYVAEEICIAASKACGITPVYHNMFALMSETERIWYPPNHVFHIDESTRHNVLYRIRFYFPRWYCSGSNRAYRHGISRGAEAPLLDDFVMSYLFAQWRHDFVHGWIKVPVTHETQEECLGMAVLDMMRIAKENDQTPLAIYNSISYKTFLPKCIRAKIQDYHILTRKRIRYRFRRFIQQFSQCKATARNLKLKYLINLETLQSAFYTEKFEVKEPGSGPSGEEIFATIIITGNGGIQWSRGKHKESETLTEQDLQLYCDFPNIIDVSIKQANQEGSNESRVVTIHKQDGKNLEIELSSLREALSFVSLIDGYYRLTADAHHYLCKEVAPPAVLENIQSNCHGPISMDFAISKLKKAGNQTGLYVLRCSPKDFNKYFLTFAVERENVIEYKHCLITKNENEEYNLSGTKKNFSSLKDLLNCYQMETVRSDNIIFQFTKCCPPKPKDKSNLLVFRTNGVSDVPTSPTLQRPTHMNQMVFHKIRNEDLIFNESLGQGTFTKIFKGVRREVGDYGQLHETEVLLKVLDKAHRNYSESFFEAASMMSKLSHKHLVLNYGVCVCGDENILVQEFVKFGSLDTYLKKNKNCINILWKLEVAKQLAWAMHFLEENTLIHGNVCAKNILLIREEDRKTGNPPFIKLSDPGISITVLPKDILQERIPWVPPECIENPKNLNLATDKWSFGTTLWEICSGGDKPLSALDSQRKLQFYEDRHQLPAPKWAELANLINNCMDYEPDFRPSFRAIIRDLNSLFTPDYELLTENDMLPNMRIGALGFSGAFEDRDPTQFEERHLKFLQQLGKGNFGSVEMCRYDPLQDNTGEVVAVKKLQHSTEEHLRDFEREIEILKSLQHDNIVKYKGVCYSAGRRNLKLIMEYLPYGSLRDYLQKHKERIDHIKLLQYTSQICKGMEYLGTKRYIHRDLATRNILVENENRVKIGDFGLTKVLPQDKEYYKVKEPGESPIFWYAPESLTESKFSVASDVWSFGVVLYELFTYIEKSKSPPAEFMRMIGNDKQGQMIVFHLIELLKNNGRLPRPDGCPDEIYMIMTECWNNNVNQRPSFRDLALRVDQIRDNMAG

On to `CC1=CCC[C@H]2[C@](C)(Cc3cc(O)cc4[nH]c(=O)oc34)[C@@H](C)CC[C@]12C`, for which the inhibition entry in data set [1], in data set [6] and in data set [8] was “inactive” each time. Also, the pIC50 in data set [2], in data set [5] and in data set [7] was 4.57 to 5.55 throughout. For the same compound, the Activity entry in data set [3] and in data set [4] was “Non-Toxic” each time.
Turning to `CC1=CCC[C@H]2[C@](C)(Cc3cc(O)cc4nc(C)oc34)[C@@H](C)CC[C@]12C`, the inhibition entry in data set [1], in data set [6] and in data set [8] was “inactive” each time. Further, the Activity entry in data set [3] and in data set [4] was “Non-Toxic” in each case.
As to `CC1=CCC[C@H]2[C@](C)(Cc3cc(N4CCCC4=O)ccc3O)[C@@H](C)CC[C@]12C`, the inhibition entry in data set [1], in data set [6] and in data set [8] was “inactive” throughout. Besides, the Activity result in data set [3] and in data set [4] was “Non-Toxic” in each case.
As to `C=C1CCC[C@H]2[C@](C)(Cc3cc(O)cc4nc(C)oc34)[C@@H](C)CC[C@]12C`, the inhibition result in data set [1], in data set [6] and in data set [8] was “inactive” each time. Besides, the Activity result in data set [3] and in data set [4] was “Non-Toxic” in each case.
On to `C=C1CCC[C@H]2[C@](C)(Cc3cc(O)cc4nc5n(c34)CCC5)[C@@H](C)CC[C@]12C`, for which the inhibition result in data set [1], in data set [6] and in data set [8] was “inactive” in each case. Besides, the pIC50 in data set [2], in data set [5] and in data set [7] was 4.57 to 5.55 in each case. Further, the Activity entry in data set [3] is “Non-Toxic”.
On to `CC1=CCC[C@H]2[C@](C)(Cc3cc(NC(=O)CC(C)C)ccc3O)[C@@H](C)CC[C@]12C`, for which the inhibition result in data set [1], in data set [6] and in data set [8] was “inactive” in each case. Also, in data set [3], the Activity result is recorded as “Non-Toxic”.
As for `CC1=CCC[C@H]2[C@](C)(Cc3cc(-n4cccc4C=O)ccc3O)[C@@H](C)CC[C@]12C`, the inhibition result in data set [1], in data set [6] and in data set [8] was “inactive” in each case. For the same compound, the Activity result in data set [3] and in data set [4] was “Non-Toxic” each time.
Consider `CC1=CCC[C@H]2[C@](C)(Cc3cc(O)cc4nc5n(c34)CCC5)[C@@H](C)CC[C@]12C`, for which the inhibition entry in data set [1], in data set [6] and in data set [8] was “inactive” each time. Also, the pIC50 in data set [2], in data set [5] and in data set [7] was 4.57 to 5.55 throughout. The Activity result in data set [3] is recorded as “Non-Toxic”.
`CC1=CCC[C@H]2[C@](C)(Cc3cc(O)cc4ncoc34)[C@@H](C)CC[C@]12C`: the inhibition entry in data set [1], in data set [6] and in data set [8] was “inactive” throughout. For the same compound, the pIC50 in data set [2], in data set [5] and in data set [7] was 4.57 to 5.55 in each case. Besides, the Activity result in data set [3] and in data set [4] was “Non-Toxic” in each case.
Turning to `CC(=O)Nc1ccc(O)c(C[C@]2(C)[C@@H](C)CC[C@]3(C)C(C)=CCC[C@@H]23)c1`, the inhibition entry in data set [1], in data set [6] and in data set [8] was “inactive” in each case. The Activity result in data set [3] and in data set [4] was “Non-Toxic” in each case.
Take `CC1=CCC[C@H]2[C@](C)(Cc3cc(O)cc4c3oc(=O)n4C)[C@@H](C)CC[C@]12C`: the inhibition entry in data set [1], in data set [6] and in data set [8] was “inactive” in each case. Also, the Activity result in data set [3] and in data set [4] was “Non-Toxic” throughout.
